Laboratory results taken from patent US8461119B2, “Agents that modulate Eph receptor activity” (The Burnham Institute, priority 2002, dated 2013).
“Also recorded” adds a separate entry of the source. Where two headings read alike, the source gives them in different places.

Experiments:
EphA2 [1] = molecular target: T1, EphA2 (Mus musculus, UniProt Q03145); assay: Immobilized biotinylated synthetic peptide capturing Eph receptor Fc (ELISA); type: binding; conditions: biotinylated peptide on streptavidin-coated wells
T1 construct: purchased R&D Systems
Target sequence in this assay (Q03145 with tags, fused parts or gaps limits assumed): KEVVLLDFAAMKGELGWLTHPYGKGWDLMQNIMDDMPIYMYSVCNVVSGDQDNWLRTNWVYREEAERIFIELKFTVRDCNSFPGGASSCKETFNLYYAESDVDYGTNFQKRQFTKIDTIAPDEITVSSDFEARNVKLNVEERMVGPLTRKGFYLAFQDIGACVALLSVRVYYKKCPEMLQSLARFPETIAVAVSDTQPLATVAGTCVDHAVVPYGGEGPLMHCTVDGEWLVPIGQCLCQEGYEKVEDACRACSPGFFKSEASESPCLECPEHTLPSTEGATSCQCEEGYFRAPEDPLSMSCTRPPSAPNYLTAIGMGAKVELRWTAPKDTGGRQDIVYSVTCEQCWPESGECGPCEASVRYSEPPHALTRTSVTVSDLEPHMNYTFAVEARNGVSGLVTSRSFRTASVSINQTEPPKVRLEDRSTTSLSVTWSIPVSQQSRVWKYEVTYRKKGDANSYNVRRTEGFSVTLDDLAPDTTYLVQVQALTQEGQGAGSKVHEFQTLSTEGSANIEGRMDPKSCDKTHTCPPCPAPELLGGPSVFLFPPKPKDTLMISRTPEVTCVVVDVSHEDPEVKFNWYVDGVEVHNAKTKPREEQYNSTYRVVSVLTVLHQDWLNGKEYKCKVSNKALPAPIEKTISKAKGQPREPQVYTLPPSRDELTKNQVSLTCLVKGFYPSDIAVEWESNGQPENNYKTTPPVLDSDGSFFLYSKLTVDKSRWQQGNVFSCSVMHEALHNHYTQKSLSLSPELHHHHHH
From the text: (§3) Bound Eph receptors were detected with anti-human Fc antibody conjugated to alkaline phosphatase (AP) (Promega, Madison, Wis.). […] Substrates were 2,2′-azino-bis(3-ethylbenzthiazoline-6-sulfonic acid) for horseradish peroxidase and p-nitrophenyl phosphate for AP.

EphA receptors = assay: as above; type: binding; conditions: Fc fusion proteins of EphA receptors
From the text: as §3

EphB receptors = assay: as above; type: binding
From the text: as §3

MAP kinase = MAP kinase phosphorylation in HUVE cells (immunoblot); type: cell-based, human
From the text: Cell lysates were used to immunoprecipitate EphA2 as described above or probed by immunoblotting with anti-phospho-p44/p42 MAPK antibody (Cell Signaling Technology, Beverly, Mass.) followed by an anti-mouse IgG peroxidase-conjugated antibody (Arnersham) and re-probed with an anti-ERK2 antibody (Santa Cruz Biotechnology, Santa Cruz, Calif.) followed by a secondary anti-rabbit IgG peroxidase-conjugated antibody (Amersham). Erk2 (p42 MAP kinase) is the major phosphorylated form present. EphA2 was immunoprecipitated (IP) and probed by immunoblotting with anti-phosphotyrosine (PTyr) or anti-EphA2 antibodies.

EphA2 [2] = molecular target: T1, EphA2; assay: Ephrin-AP binding to Eph receptor-coated wells in presence of peptide; conditions: ephrin-A5-AP, ephrin-A6-AP
Target sequence in this assay (Q03145 with tags, fused parts or gaps limits assumed): as above
Method: Ephrin binding to Eph receptor-coated plates was quantified using alkaline phosphatase (AP) fusion proteins of ephrin-A5 and ephrin-A6 (plasmids encoding these AP-fusions are described above). Diluted cell culture supernatants containing ephrin-A5-AP and ephrin-A6-AP were co-incubated with peptides in microtiter wells coated with EphA2 Fc or EphA4 Fc. Ephrins remaining bound after washing were detected by measuring AP activity.

EphA4 [3] = molecular target: T2, EphA4 (Homo sapiens, UniProt P54764); assay: as above; conditions: for Antagonism of ephrin-A5 binding to EphA4: ephrin-A5 AP
T2 construct: immobilized EphA4 receptor extracellular domain fused to a human Fc region
T2 sequence (P54764 20-547 limits assumed, species assumed): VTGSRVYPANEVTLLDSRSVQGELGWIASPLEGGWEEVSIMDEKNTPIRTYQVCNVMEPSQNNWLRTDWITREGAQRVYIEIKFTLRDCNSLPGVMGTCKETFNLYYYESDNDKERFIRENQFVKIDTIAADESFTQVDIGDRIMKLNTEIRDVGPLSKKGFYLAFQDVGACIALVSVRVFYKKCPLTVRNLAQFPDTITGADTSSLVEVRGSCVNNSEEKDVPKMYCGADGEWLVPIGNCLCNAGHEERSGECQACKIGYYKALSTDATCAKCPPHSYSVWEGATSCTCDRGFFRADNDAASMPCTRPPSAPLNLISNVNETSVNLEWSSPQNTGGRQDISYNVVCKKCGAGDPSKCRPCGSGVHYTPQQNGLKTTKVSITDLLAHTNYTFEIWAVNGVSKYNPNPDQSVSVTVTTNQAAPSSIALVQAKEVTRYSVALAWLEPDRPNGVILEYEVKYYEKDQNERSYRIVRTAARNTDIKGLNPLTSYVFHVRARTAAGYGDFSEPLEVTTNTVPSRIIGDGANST
Method: Diluted cell culture supernatants containing ephrin-A5-AP and ephrin-A6-AP were co-incubated with peptides in microtiter wells coated with EphA2 Fc or EphA4 Fc. Ephrins remaining bound after washing were detected by measuring AP activity.

EphA2 [4] = molecular target: T1, EphA2; assay: Peptide competition with phage clones on immobilized EphA2 Fc; type: binding
Target sequence in this assay (Q03145 26-538 limits assumed): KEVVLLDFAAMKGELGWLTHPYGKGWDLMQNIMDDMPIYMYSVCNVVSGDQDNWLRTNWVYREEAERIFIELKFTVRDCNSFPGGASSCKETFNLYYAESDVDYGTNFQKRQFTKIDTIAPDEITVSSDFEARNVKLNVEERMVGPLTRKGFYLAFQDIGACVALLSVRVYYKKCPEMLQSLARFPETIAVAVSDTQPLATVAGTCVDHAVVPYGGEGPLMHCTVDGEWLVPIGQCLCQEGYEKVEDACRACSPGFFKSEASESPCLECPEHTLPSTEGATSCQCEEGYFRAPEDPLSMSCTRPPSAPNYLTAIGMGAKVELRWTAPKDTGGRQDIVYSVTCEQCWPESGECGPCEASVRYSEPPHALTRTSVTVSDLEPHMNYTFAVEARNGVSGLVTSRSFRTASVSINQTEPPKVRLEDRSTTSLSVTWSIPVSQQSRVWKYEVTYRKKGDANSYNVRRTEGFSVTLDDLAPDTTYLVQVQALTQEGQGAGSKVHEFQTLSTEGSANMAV
Method: A histidine-tagged mouse EphA2 Fc fusion protein (R&D Systems, Minneapolis, Minn.) was incubated overnight at 4° C. in nickel-nitrilotriacetic acid (Ni-NTA)-coated ELISA plates at concentrations of 1-10 μg/ml in Tris-buffered saline (TBS) (150 mM NaCl, 50 mM Tris-HCl, pH 7.5). Wells were blocked with 0.5% bovine serum albumin (BSA) in TBS, and rinsed with binding buffer (TBS, 1 mM CaCl2, 0.1% Tween 20).
For peptide competition assays with phage clones, Ni-NTA microtiter wells coated with EphA2 Fc were incubated for 1 hour at room temperature with phage clones diluted between 1:600 and 1:9,000 in binding buffer (100 μl/well). Unbound phage were washed away and competing peptides were added for 1 hour. Alternatively, peptides and phage were co-incubated together.

EphB4 [5] = assay: Binding specificity of synthetic peptides; conditions: immobilized synthetic peptide
From the text: as §3

EphB4 [6] = assay: Binding specificity of phage clones on Eph receptor-coated plates; conditions: phage clones displaying the peptides
From the text: (§4) Phage binding to Eph receptor-coated plates was quantified using an anti-phage antibody conjugated to horseradish peroxidase (M13 phage detection kit, Amersham Pharmacia Biotech., Piscataway, N.J.).

EphA7 = assay: Binding selectivity of phage clones isolated on EphA7
Method: (§1) Alternatively, peptides and phage were co-incubated together.
(§2) In this example additional phage panning experiments were performed to identify peptides that bind to EphA5 and EphA7 (FIG. 18A). EphA5 and EphA7 are two EphA receptors that are closely related to EphA4 but are differentially expressed in the developing and adult nervous system (Ellis, J. et al. 1995 Mechanisms of Development 52:319-341; Mori, T. et al 1995 Brain Res Mol Brain Res 34:154-160; Olivieri, G. & Miescher, G. C. 1999 J Histochem Cytochem 47:855-861; Zhang, J. H. et al 1997 Brain Res Mol Brain Res 47:202-214). Three different peptide sequences that bind each receptor were identified.

EphA4 [7] = molecular target: T2, EphA4; assay: Binding specificity of synthetic peptides; conditions: compared to other EphA and EphB receptors
From the text: as §3

EphA4 [8] = molecular target: T2, EphA4; assay: Binding selectivity of phage clones isolated on EphA4; conditions: compared to other EphA or EphB4 receptors
From the text: as §4
In this example phage display was used to identify peptides that bind to an EphA4 receptor. An M13 phage library displaying random 12-mer peptides was panned on the immobilized EphA4 receptor extracellular domain fused to a human Fc region (FIG. 12A). The phage clones remaining bound to EphA4 were eluted with a low pH solution and amplified.

EphA4 [9] = molecular target: T3, EphA4 (Mus musculus, UniProt Q03137); assay: Ephrin-A3 Fc induced EphA4 tyrosine phosphorylation in hippocampal slices; type: cell-based; conditions: micromolar peptide
T3 construct: antagonize ephrin-A3-induced tyrosine phosphorylation of endogenous EphA4; from tissue; host or cells: mouse hippocampal slices
T3 sequence (Q03137 20-986): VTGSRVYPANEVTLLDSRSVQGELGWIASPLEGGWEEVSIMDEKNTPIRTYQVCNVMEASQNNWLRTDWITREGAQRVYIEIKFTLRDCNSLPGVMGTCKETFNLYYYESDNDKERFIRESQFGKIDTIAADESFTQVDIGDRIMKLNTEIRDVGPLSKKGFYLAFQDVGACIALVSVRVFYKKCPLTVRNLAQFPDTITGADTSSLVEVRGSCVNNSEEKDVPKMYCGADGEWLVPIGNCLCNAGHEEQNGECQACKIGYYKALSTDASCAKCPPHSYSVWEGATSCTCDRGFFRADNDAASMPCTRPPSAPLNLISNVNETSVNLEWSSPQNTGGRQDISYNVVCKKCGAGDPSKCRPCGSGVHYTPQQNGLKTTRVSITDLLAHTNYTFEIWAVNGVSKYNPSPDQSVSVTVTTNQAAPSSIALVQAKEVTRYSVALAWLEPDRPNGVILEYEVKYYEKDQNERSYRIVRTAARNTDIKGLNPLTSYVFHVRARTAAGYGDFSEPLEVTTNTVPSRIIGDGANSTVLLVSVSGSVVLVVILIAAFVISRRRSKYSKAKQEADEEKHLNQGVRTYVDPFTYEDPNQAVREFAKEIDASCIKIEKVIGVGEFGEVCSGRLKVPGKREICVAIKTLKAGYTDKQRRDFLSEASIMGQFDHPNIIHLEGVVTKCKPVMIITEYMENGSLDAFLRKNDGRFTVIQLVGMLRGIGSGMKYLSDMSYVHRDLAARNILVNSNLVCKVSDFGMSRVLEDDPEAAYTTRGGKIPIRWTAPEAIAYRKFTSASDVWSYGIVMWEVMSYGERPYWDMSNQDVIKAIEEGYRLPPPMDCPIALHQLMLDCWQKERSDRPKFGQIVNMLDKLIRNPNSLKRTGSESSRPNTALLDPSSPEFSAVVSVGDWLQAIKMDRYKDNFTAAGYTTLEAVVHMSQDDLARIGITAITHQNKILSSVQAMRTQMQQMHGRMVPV

neural crest cells = assay: Neural crest cell migration assay in chick trunk explants; type: cell-based; conditions: 24 hours, 13 μM KYL peptide or 10 μg/ml EphA4-Fc
Method: In this example to address whether the EphA4-binding peptides can inhibit endogenous ephrin-EphA4 physiological function, a neural crest cell migration assay (McLennan, R. & Krull, C. E. 2002 Gene Expr 10:295-305) was utilized. […] The migration of neural crest cells was determined by staining for HNK-1 for neural crest cells and ephrin-B1 to label the caudal sclerotome. […] Neural crest cells migrated properly into the rostral sclerotome in explants treated with control Fc.

EphA5 = assay: Binding selectivity of phage clones isolated on EphA5
Method: as §1, §2

CSCC[C@H](NC(=O)[C@H](CCSC)NC(=O)[C@@H]1CCCN1C(=O)[C@@H](NC(=O)[C@H](CO)NC(=O)[C@H](CC(=O)O)NC(=O)[C@@H]1CCCN1C(=O)[C@H](Cc1ccc(O)cc1)NC(=O)[C@H](C)NC(=O)[C@H](CO)NC(=O)[C@@H](N)Cc1ccc(O)cc1)C(C)C)C(=O)N[C@@H](CO)C(=O)O [YSA]
Binding of immobilized synthetic peptide to EphA2 Fc (EphA2 [1]): bound to EphA2
Binding of immobilized synthetic peptide to EphA receptors (other than or including EphA2) (EphA receptors): not to other EphA receptors
Binding of synthetic peptide to receptors of the EphB family (EphB receptors): lack the ability to bind to receptors of the EphB family
MAP kinase activation (MAP kinase): activates a previously described Eph2A signaling pathway that suppresses MAP kinase activation
Inhibition of ephrin binding to immobilized EphA2 (EphA2 [2]): inhibit, in a concentration dependent manner
Inhibition of A-ephrin binding to immobilized EphA4 by EphA2-binding peptides (EphA4 [3]; ephrin-A5-AP, ephrin-A6-AP): not EphA4
Competition of synthetic peptide with phage binding to immobilized EphA2 (EphA2 [4]): competes with SWL phage

A3 peptide: Twelve-mer synthetic peptide corresponding to the G-H loop of ephrin-A3
Binding of immobilized synthetic peptide to EphA2 Fc (EphA2 [1]): bind EphA2, albeit more weakly than the YSA peptide
Binding of immobilized synthetic peptide to EphA receptors (other than or including EphA2) (EphA receptors): bind promiscuously to all EphA receptors
Inhibition of ephrin binding to immobilized EphA2 (EphA2 [2]): did not compete with ephrin-A5 for binding to EphA2
Competition of synthetic peptide with phage binding to immobilized EphA2 (EphA2 [4]): did not inhibit phage binding

A5 peptide: Twelve-mer synthetic peptide corresponding to the A-A′ β-strand of ephrin-A5
Binding of immobilized synthetic peptide to EphA2 Fc (EphA2 [1]): bind EphA2, albeit more weakly than the YSA peptide
Binding of immobilized synthetic peptide to EphA receptors (other than or including EphA2) (EphA receptors): bind promiscuously to all EphA receptors
Inhibition of ephrin binding to immobilized EphA2 (EphA2 [2]): enhanced both phage and ephrin-A5 binding to EphA2
Competition of synthetic peptide with phage binding to immobilized EphA2 (EphA2 [4]): enhanced both phage and ephrin-A5 binding to EphA2

DALNDWLLFRPW (DAL peptide)
EphB4 bound compared to other EphB family receptors (EphB4 [5]): four-fold
Binding of phage clones to EphB4 Fc (EphB4 [6]): bound to EphB4 Fc

IPWTQHMAMSPM (IPW peptide)
Binding of phage clones to EphB4 Fc (EphB4 [6]): bound to EphB4 Fc

KHLPFYPHPTSP (EphA7-binding peptide)
Binding to further EphA receptors of EphA7-binding peptides (EphA7): also binds to EphA3, EphA5, and EphA6

KYLPYWPVLSSL (KYL peptide)
Selectivity of synthetic peptide for EphA4 (EphA4 [7]): exhibited some binding to other EphA and EphB receptors
Binding preference of phage clones for EphA4 (EphA4 [8]): preferential binding to EphA4
Antagonism of ephrin-A5 binding to EphA4 (EphA4 [3]): antagonize ephrin-A5 binding to EphA4 in a concentration-dependent manner
Peptide concentration that almost completely inhibited ephrin binding (EphA4 [3]; ephrin-A5 AP binding to EphA4): 1 µM
Selectivity of block of ephrin-A5 AP binding to EphA4 compared to other EphA receptors (EphA4 [3]; peptide 50 μM): preferentially
Ephrin-A3-induced tyrosine phosphorylation (activation) of endogenous EphA4 (EphA4 [9]): blocked EphA4 tyrosine phosphorylation at lower concentrations than the APY and VTM peptides; also recorded: antagonize ephrin-A3 induced activation of endogenous EphA4
Migration of neural crest cells (neural crest cells): ectopic migration of neural crest cells into the caudal half-sclerotome

NHWLDTLFPMHM (EphA4-binding peptide)
Binding preference of phage clones for EphA4 (EphA4 [8]): preferential binding to EphA4

SGHQLLLNKMPN (SGH peptide)
Binding of phage clones to EphB4 Fc (EphB4 [6]): bound to EphB4 Fc

SLRDTYMRAKVL (SLR peptide)
Binding selectivity of peptides isolated on EphA5 (EphA5): selective binding to this receptor
Binding selectivity of peptides isolated on EphA5 (EphA5; listed as SLR): selectively bind to EphA5

SVSVGMKPSPRP (SVS peptide)
Binding to further EphA receptors of EphA7-binding peptides (EphA7): also binds to EphA3 and EphA6

VADRYAVYWNSSNPR (extended A5 peptide)
Binding of immobilized synthetic peptide to EphA2 Fc (EphA2 [1]): exhibits a similar weak binding

VTMEAINLAFPG (VTM peptide)
Binding preference of phage clones for EphA4 (EphA4 [8]): preferential binding to EphA4
Antagonism of ephrin-A5 binding to EphA4 (EphA4 [3]): antagonize ephrin-A5 binding to EphA4 in a concentration-dependent manner
Mode of inhibition of ephrin binding (EphA4 [3]; inhibition curves at different ephrin concentrations): competitively inhibits ephrin binding
Ephrin-A3-induced tyrosine phosphorylation (activation) of endogenous EphA4 (EphA4 [9]): antagonize ephrin-A3 induced activation of endogenous EphA4

WASHAPYWPHPP (EphA7-binding peptide)
Binding to further EphA receptors of EphA7-binding peptides (EphA7): also binds to EphA3

WDCNGPYCHWLG (WDC peptide)
Binding selectivity of peptides isolated on EphA5 (EphA5): selective binding to this receptor
Binding selectivity of peptides isolated on EphA5 (EphA5; listed as WDC): selectively bind to EphA5

WTFPVLWDDKHP (WTF peptide)
Binding selectivity of peptides isolated on EphA5 (EphA5): also binds to EphA6
Binding selectivity of peptides isolated on EphA5 (EphA5; listed as WTF): binds to both EphA5 and EphA6
